The values that follow come from ChEMBL document CHEMBL1201862, “PubChem BioAssay data set” (2004).

Among the test systems are K562; HCT-15; Malme-3M; RPMI-8226; A498; SK-OV-3; M14; 786-0; U-251; MOLT-4; HOP-92; OVCAR-3; IGROV-1; UACC-62; BT-549; SNB-75; T47D; NCI/ADR-RES; PC-3; HCC 2998.
Holding throughout (test): DTP human tumour cell line panel, 48 h

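Five concentrations, 48 hours, 96-well plates. Abbreviation: GI50, concentration required for 50% inhibition of growth.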 Active and inactive are the calls of the source. No stated cut-off is given here; in the data, active = GI50 up to about 1.1 µM and inactive = higher. Bounds are passed on as bounds.

What is called GI50 is the concentration giving 50% growth inhibition. On to `COP(=O)(/C=C/C(NC(=O)C(Cl)(Cl)Cl)c1ccccc1)OC` (stereo not drawn), for which the GI50 was > 100 µM (inactive) in the experiment with K562; more than 100 µM with HCT-15; > 100 µM (inactive) with Malme-3M; > 100 µM (inactive) with RPMI-8226; > 100 µM (inactive) in the experiment on A498; > 100 µM (inactive) in the experiment on SK-OV-3. Moreover, the GI50 with M14, in the experiment with 786-0, with U-251, in the experiment on MOLT-4, in the experiment with HOP-92 and with OVCAR-3 was > 100 µM (inactive) in each case. For the same compound, the GI50 in the experiment with IGROV-1, in the experiment with UACC-62, with BT-549, in the experiment on SNB-75, in the experiment with T47D and with NCI/ADR-RES was > 100 µM (inactive) in each case. Further, the GI50 in the experiment on PC-3 and in the experiment with HCC 2998 was > 100 µM (inactive) each time.

Regarding `Nc1nccc2c1ncn2C1C=C(CO)C(O)C1O` (stereo not drawn), the GI50 with K562 is 1.86 µM (inactive); in the experiment on HCT-15, 13.2 µM; with Malme-3M, 43.6 µM (inactive); in the experiment with RPMI-8226, 6.31 µM (inactive); with A498, > 100 µM (inactive); in the experiment with SK-OV-3, > 100 µM (inactive). Further, the GI50 in the experiment with M14 was 70 µM (inactive); with 786-0, 60.1 µM (inactive); with U-251, 51.8 µM (inactive); in the experiment with MOLT-4, 2.55 µM (inactive); in the experiment with HOP-92, 70.1 µM (inactive); with OVCAR-3 it was > 94.4 µM (inactive). Also, the GI50 in the experiment with IGROV-1 is > 95.5 µM (inactive); in the experiment with UACC-62 it was 11.5 µM (inactive); in the experiment with BT-549, 83.2 µM (inactive); in the experiment with SNB-75, 62.1 µM (inactive); in the experiment on T47D, > 100 µM (inactive); in the experiment on NCI/ADR-RES, 7.05 µM (inactive). In addition, the GI50 with PC-3 was > 100 µM (inactive); in the experiment with HCC 2998, 48.2 µM (inactive).

Consider `CCCCCCOc1ccc(NC2=C(Cl)C(=O)c3c(O)ccc(O)c3C2=O)cc1`, for which the GI50 is 3.1 µM (inactive) in the experiment on K562; 1.91 µM in the experiment with HCT-15; 1.83 µM (inactive) with Malme-3M; 1.4 µM (inactive) in the experiment on RPMI-8226; 4.57 µM (inactive) with A498; > 10 µM (inactive) with SK-OV-3. For the same compound, the GI50 was 2.01 µM (inactive) with M14; 0.611 µM (active) with 786-0; 2.32 µM (inactive) with U-251; 2.31 µM (inactive) in the experiment with MOLT-4; 2.72 µM (inactive) with HOP-92; 2.02 µM (inactive) with OVCAR-3. The GI50 is 2.58 µM (inactive) in the experiment with UACC-62; 3.25 µM (inactive) in the experiment with BT-549; 4.06 µM (inactive) in the experiment with SNB-75; 2.03 µM (inactive) in the experiment on T47D; 2.55 µM (inactive) in the experiment with NCI/ADR-RES; 3.09 µM (inactive) with PC-3. Besides, the GI50 in the experiment with HCC 2998 is 1.8 µM (inactive).

Take `Clc1ccc2oc(CCc3ccccc3)nc2c1`: the GI50 with K562 is 49.9 µM (inactive); in the experiment with HCT-15, 38.5 µM; in the experiment with Malme-3M, > 100 µM (inactive); in the experiment with RPMI-8226, 46.1 µM (inactive); in the experiment on A498 it was 26.3 µM (inactive); in the experiment on SK-OV-3 it was 47.2 µM (inactive). Also, the GI50 in the experiment with M14 is 59.8 µM (inactive); with 786-0, 53.8 µM (inactive); in the experiment on U-251, 37.2 µM (inactive); with MOLT-4, 35.4 µM (inactive); with HOP-92 it was 49.4 µM (inactive); in the experiment on OVCAR-3, 21.3 µM (inactive). In addition, the GI50 is 51.3 µM (inactive) in the experiment on IGROV-1; > 100 µM (inactive) with UACC-62; 49.5 µM (inactive) with BT-549; 17.8 µM (inactive) in the experiment with SNB-75; 20.5 µM (inactive) in the experiment on T47D; 40.8 µM (inactive) in the experiment with NCI/ADR-RES. The GI50 in the experiment on PC-3 is 48.6 µM (inactive); in the experiment on HCC 2998, 27.4 µM (inactive).

In the case of `O=C1c2c(Br)sc(Br)c2[C@@H](O)[C@H]1O`, the GI50 in the experiment on K562 is 2.91 µM (inactive); in the experiment on HCT-15, 11.4 µM; with Malme-3M, 20.4 µM (inactive); with RPMI-8226, 21.7 µM (inactive); with A498 it was 68.1 µM (inactive); in the experiment with SK-OV-3, 15.6 µM (inactive). Besides, the GI50 in the experiment with M14 is 13.1 µM (inactive); in the experiment on 786-0, 15.2 µM (inactive); with U-251, 7.48 µM (inactive); in the experiment on MOLT-4 it was 5.97 µM (inactive); in the experiment on HOP-92 it was 19.2 µM (inactive); in the experiment with OVCAR-3 it was 2.24 µM (inactive). In addition, the GI50 in the experiment with IGROV-1 was 18.2 µM (inactive); in the experiment on UACC-62, 16.7 µM (inactive); with BT-549, 17.9 µM (inactive); in the experiment with SNB-75, 15.4 µM (inactive); in the experiment on T47D, 19.4 µM (inactive); with NCI/ADR-RES, 22.4 µM (inactive). For the same compound, the figures for the GI50 in the experiment on PC-3 and in the experiment with HCC 2998 were 17.5 µM (inactive) and 20.1 µM (inactive), respectively.

Regarding `CCN(CC)C(=S)SC1C(=O)NC(=O)NC1=O`, the GI50 is > 100 µM (inactive) in the experiment with K562; more than 100 µM in the experiment on HCT-15; > 100 µM (inactive) with Malme-3M; > 100 µM (inactive) with RPMI-8226; 0.0106 µM (active) with A498; > 100 µM (inactive) in the experiment on SK-OV-3. Moreover, the GI50 with 786-0, in the experiment with U-251, with MOLT-4, with HOP-92, in the experiment with OVCAR-3 and in the experiment with IGROV-1 was > 100 µM (inactive) in each case. For the same compound, the GI50 with UACC-62 was > 100 µM (inactive); with BT-549, > 100 µM (inactive); in the experiment on SNB-75 it was > 100 µM (inactive); in the experiment with T47D, > 100 µM (inactive); with NCI/ADR-RES, 0.6 µM (active); in the experiment with PC-3 it was > 100 µM (inactive). Further, the GI50 in the experiment on HCC 2998 is > 100 µM (inactive).

Take `Cc1ccc(S(=O)(=O)N2CCN(CCN(C)CCN3CCN(S(=O)(=O)c4ccc(C)cc4)CC3)CC2)cc1`: the GI50 in the experiment with K562 is 15 µM (inactive); in the experiment on HCT-15, 17.6 µM; in the experiment on Malme-3M, 18.6 µM (inactive); with RPMI-8226, 16.6 µM (inactive); in the experiment on A498, 16.4 µM (inactive); in the experiment with SK-OV-3 it was 18.4 µM (inactive). In addition, the GI50 in the experiment with M14 was 17.2 µM (inactive); in the experiment on 786-0 it was 19.4 µM (inactive); in the experiment with U-251, 17.3 µM (inactive); with MOLT-4, 14.1 µM (inactive); with HOP-92, 17.7 µM (inactive); in the experiment with OVCAR-3, 16.7 µM (inactive). Also, the GI50 is 16.3 µM (inactive) with IGROV-1; 17.9 µM (inactive) in the experiment on UACC-62; 16.9 µM (inactive) in the experiment with BT-549; 19.3 µM (inactive) in the experiment on T47D; 20 µM (inactive) with NCI/ADR-RES; 20.7 µM (inactive) with PC-3. In the experiment on HCC 2998, the GI50 is 15.9 µM (inactive).

As to `Cc1ccc(-c2n[nH]c(=O)[nH]2)cc1[N+](=O)[O-]`, the GI50 is > 100 µM (inactive) in the experiment with K562; more than 100 µM in the experiment with HCT-15; > 100 µM (inactive) with Malme-3M; > 100 µM (inactive) in the experiment with RPMI-8226; > 100 µM (inactive) in the experiment with A498; > 100 µM (inactive) in the experiment with M14. The GI50 in the experiment with 786-0, with U-251, with MOLT-4, with HOP-92, in the experiment with OVCAR-3 and in the experiment on IGROV-1 was > 100 µM (inactive) in each case. For the same compound, the GI50 in the experiment on UACC-62 is > 100 µM (inactive); in the experiment with BT-549, 36.8 µM (inactive); in the experiment with SNB-75 it was 61 µM (inactive); with T47D it was > 100 µM (inactive); with NCI/ADR-RES, > 100 µM (inactive); in the experiment with PC-3 it was > 100 µM (inactive). Moreover, the GI50 in the experiment with HCC 2998 was 63.4 µM (inactive).

With `COc1ccc(NC(=O)CC(=O)n2nc(C)c(/N=N/c3ccc(C)c(C)c3)c2C)cc1`, the GI50 in the experiment on Malme-3M is > 100 µM (inactive); with RPMI-8226, > 100 µM (inactive); with A498 it was 63.8 µM (inactive); in the experiment on SK-OV-3, 10.8 µM (inactive); in the experiment with M14 it was > 100 µM (inactive); with 786-0 it was 41.6 µM (inactive). Moreover, the GI50 in the experiment on U-251 was 23 µM (inactive); with MOLT-4 it was 78.3 µM (inactive); in the experiment with HOP-92, 16 µM (inactive); in the experiment with OVCAR-3, > 100 µM (inactive); with IGROV-1, 29.4 µM (inactive); with UACC-62 it was > 100 µM (inactive). Besides, the GI50 in the experiment on BT-549 is > 100 µM (inactive); with SNB-75 it was 39.2 µM (inactive); with T47D, 64.7 µM (inactive); with NCI/ADR-RES, > 100 µM (inactive); with PC-3 it was > 100 µM (inactive); with HCC 2998 it was > 100 µM (inactive).

Turning to `O=C(O)CCNc1[nH]cnc2ncnc1-2`, the GI50 in the experiment on K562 is > 100 µM (inactive); with HCT-15, more than 100 µM; in the experiment with Malme-3M, > 100 µM (inactive); in the experiment with RPMI-8226 it was > 100 µM (inactive); in the experiment with A498 it was > 100 µM (inactive); with SK-OV-3, > 100 µM (inactive). In addition, the GI50 is > 100 µM (inactive) with M14; > 100 µM (inactive) in the experiment with 786-0; > 100 µM (inactive) in the experiment with U-251; > 100 µM (inactive) in the experiment with HOP-92; 0.621 µM (active) in the experiment with OVCAR-3; > 100 µM (inactive) in the experiment on IGROV-1. For the same compound, the GI50 in the experiment on UACC-62, with BT-549, in the experiment with SNB-75, in the experiment with T47D, in the experiment with NCI/ADR-RES and in the experiment with PC-3 was > 100 µM (inactive) in each case. Besides, the GI50 in the experiment on HCC 2998 is > 100 µM (inactive).
